Measured values reported in patent US11970498B2, “CDK2 inhibitors” (BLUEPRINT MEDICINES CORPORATION, priority 2021, dated 2024).
pIC50: −log10 of the molar value.

Tests used:
CDK1/Cyclin B1, GST-tag = biological target: T1, CDK1/Cyclin B1, GST-tag (Homo sapiens, UniProt P06493); assay: CDK1/Cyclin B1 biochemical phosphorylation assay (Caliper mobility shift); conditions: apparent IC50; 1.0 mM ATP or ATP Km; 1.5 nM enzyme; 25° C.
T1 construct: GST
Method in brief: (§1)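 Caliper electrophoretic separation of substrate and phosphopeptide gave apparent IC50s. Enzymes: CDK1/Cyclin B1 GST-tag 1.5 nM, CDK2/Cyclin E 1.25 nM; ATP 1.0 mM or at Km; 7.5 µM FL-peptide; pH 7.5 HEPES buffer, 1% DMSO; room temperature until 10–20% phosphorylated, then EDTA quench.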

CDK2/Cyclin E = CDK2/Cyclin E (Homo sapiens, UniProt P24941); assay: CDK2/Cyclin E biochemical phosphorylation assay (Caliper mobility shift); conditions: apparent IC50; 1.0 mM ATP or ATP Km; 1.25 nM enzyme; 25° C.; read-out: CDK2/cyclin E1 IC50
Method in brief: as §1

T1 sequence (P06493 whole entry): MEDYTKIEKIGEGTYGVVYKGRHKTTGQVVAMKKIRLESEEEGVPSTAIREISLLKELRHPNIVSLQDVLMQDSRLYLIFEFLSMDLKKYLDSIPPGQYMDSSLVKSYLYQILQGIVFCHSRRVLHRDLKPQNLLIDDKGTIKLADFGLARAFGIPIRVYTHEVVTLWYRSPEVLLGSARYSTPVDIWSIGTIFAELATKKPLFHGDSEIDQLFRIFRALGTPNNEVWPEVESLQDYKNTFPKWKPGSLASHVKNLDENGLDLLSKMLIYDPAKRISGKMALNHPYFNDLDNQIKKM
T1 sequence (P14635 whole entry partner): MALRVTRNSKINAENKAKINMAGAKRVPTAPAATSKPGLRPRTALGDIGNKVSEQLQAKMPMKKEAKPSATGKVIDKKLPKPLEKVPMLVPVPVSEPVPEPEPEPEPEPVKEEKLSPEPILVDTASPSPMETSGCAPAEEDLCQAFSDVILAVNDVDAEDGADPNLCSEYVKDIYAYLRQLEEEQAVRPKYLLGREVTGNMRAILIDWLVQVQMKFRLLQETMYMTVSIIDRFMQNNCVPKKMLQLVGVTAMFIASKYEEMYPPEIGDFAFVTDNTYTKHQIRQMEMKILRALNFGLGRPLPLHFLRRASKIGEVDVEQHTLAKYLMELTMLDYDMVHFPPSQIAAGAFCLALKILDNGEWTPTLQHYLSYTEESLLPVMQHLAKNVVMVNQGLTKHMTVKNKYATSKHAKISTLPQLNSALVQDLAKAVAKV

SMILES | pIC50 (CDK1/Cyclin B1, GST-tag) | pIC50 (CDK2/Cyclin E)
FC(F)Oc1cc(Nc2cnc3cnn(C[C@H]4CCOC4)c3n2)n[nH]1 (single isomer, unassigned) [Example 143, (R)-N-(5-(difluoromethoxy)-1H-pyrazol-3-yl)-1-((tetrahydrofuran-3-yl)methyl)-1H-pyrazolo[3,4-b]pyrazin-6-amine or (S)-N-(5-(difluoromethoxy)-1H-pyrazol-3-yl)-1-((tetrahydrofuran-3-yl)methyl)-1H-pyrazolo[3,4-b]pyrazin-6-amine] | ≤ 6.30 | 7.70 to 8.00
C[C@@H](c1cccnc1)n1ncc2ncc(Nc3cc(OC(F)F)[nH]n3)nc21 [Example 1, (S)—N-(5-(difluoromethoxy)-1H-pyrazol-3-yl)-1-(1-(pyridin-3-yl)ethyl)-1H-pyrazolo[3,4-b]pyrazin-6-amine] | 6.30 to 7.00 | ≥ 8.00
FC(F)Oc1cc(Nc2cnc3cnn([C@@H](C(F)F)C4CCOCC4)c3n2)n[nH]1 (single isomer, unassigned) [Example 29, (R)-1-(2,2-difluoro-1-(tetrahydro-2H-pyran-4-yl)ethyl)-N-(5-(difluoromethoxy)-1H-pyrazol-3-yl)-1H-pyrazolo[3,4-b]pyrazin-6-amine or (S)-1-(2,2-difluoro-1-(tetrahydro-2H-pyran-4-yl)ethyl)-N-(5-(difluoromethoxy)-1H-pyrazol-3-yl)-1H-pyrazolo[3,4-b]pyrazin-6-amine] | ≤ 6.30 | ≥ 8.00
C[C@@H](O)c1nn([C@@H](C)C2CCOCC2)c2nc(Nc3cc(OC(F)F)[nH]n3)cnc12 (single isomer, unassigned) [Example 182, (S)-1-(6-((5-(difluoromethoxy)-1H-pyrazol-3-yl)amino)-1-((S)-1-(tetrahydro-2H-pyran-4-yl)ethyl)-1H-pyrazolo[3,4-b]pyrazin-3-yl)ethan-1-ol or (R)-1-(6-((5-(difluoromethoxy)-1H-pyrazol-3-yl)amino)-1-((S)-1-(tetrahydro-2H-pyran-4-yl)ethyl)-1H-pyrazolo[3,4-b]pyrazin-3-yl)ethan-1-ol] | ≤ 6.30 | ≥ 8.00
FC(F)Oc1cc(Nc2cnc3cnn(C[C@H]4COCCO4)c3n2)n[nH]1 [Example 86, (S)-1-((1,4-dioxan-2-yl)methyl)-N-(5-(difluoromethoxy)-1H-pyrazol-3-yl)-1H-pyrazolo[3,4-b]pyrazin-6-amine] | ≤ 6.30 | ≥ 8.00
C[C@@H]([C@@H]1COCCO1)n1ncc2ncc(Nc3cc(OC(F)F)[nH]n3)nc21 (single isomer, unassigned) [Example 211] | ≤ 6.30 | 7.00 to 7.52
FC(F)Oc1cc(Nc2cnc3cnn(C[C@H]4CCCOC4)c3n2)n[nH]1 (single isomer, unassigned) [Example 141, (R)-N-(5-(difluoromethoxy)-1H-pyrazol-3-yl)-1-((tetrahydro-2H-pyran-3-yl)methyl)-1H-pyrazolo[3,4-b]pyrazin-6-amine or (S)-N-(5-(difluoromethoxy)-1H-pyrazol-3-yl)-1-((tetrahydro-2H-pyran-3-yl)methyl)-1H-pyrazolo[3,4-b]pyrazin-6-amine] | ≤ 6.30 | ≥ 8.00
FC(F)Oc1cc(Nc2cnc3cnn(CC4CC5CCC(C4)O5)c3n2)n[nH]1 (stereo not shown) [Example 99, 1-((8-oxabicyclo[3.2.1]octan-3-yl)methyl)-N-(5-(difluoromethoxy)-1H-pyrazol-3-yl)-1H-pyrazolo[3,4-b]pyrazin-6-amine] | ≤ 6.30 | ≥ 8.00
Fc1nn(Cc2cccnc2)c2nc(Nc3cc(OC(F)F)[nH]n3)cnc12 [Example 120, N-(5-(difluoromethoxy)-1H-pyrazol-3-yl)-3-fluoro-1-(pyridin-3-ylmethyl)-1H-pyrazolo[3,4-b]pyrazin-6-amine] | ≤ 6.30 | ≥ 8.00

Next, values leading:

pIC50 (CDK1/Cyclin B1, GST-tag) | pIC50 (CDK2/Cyclin E) | SMILES
≤ 6.30 | 7.70 to 8.00 | C[C@@H]([C@H]1CCCOC1)n1ncc2ncc(Nc3cc(OC(F)F)[nH]n3)nc21 (single isomer, unassigned) [Example 216]
≤ 6.30 | 7.70 to 8.00 | COc1cc(Nc2cnc3cnn([C@H](C)C4CC4)c3n2)n[nH]1 [Example 73, (R)-1-(1-cyclopropylethyl)-N-(5-methoxy-1H-pyrazol-3-yl)-1H-pyrazolo[3,4-b]pyrazin-6-amine]
≤ 6.30 | 7.52 to 7.70 | Fc1cncc(Cn2ncc3ncc(Nc4cc(OC(F)F)[nH]n4)nc32)c1 [Example 42, N-(5-(difluoromethoxy)-1H-pyrazol-3-yl)-1-((5-fluoropyridin-3-yl)methyl)-1H-pyrazolo[3,4-b]pyrazin-6-amine]
≤ 6.30 | ≥ 8.00 | C[C@@H](c1cccnc1Cl)n1ncc2ncc(Nc3cc(OC(F)F)[nH]n3)nc21 [Example 60, (S)-1-(1-(2-chloropyridin-3-yl)ethyl)-N-(5-(difluoromethoxy)-1H-pyrazol-3-yl)-1H-pyrazolo[3,4-b]pyrazin-6-amine]
≤ 6.30 | 7.70 to 8.00 | CC1(Cn2ncc3ncc(Nc4cc(OC(F)F)[nH]n4)nc32)CC1 [Example 98, N-(5-(difluoromethoxy)-1H-pyrazol-3-yl)-1-((1-methylcyclopropyl)methyl)-1H-pyrazolo[3,4-b]pyrazin-6-amine]
≤ 6.30 | 7.70 to 8.00 | COc1cc(Nc2cnc3cnn([C@@H](C)C4COC4)c3n2)n[nH]1 [Example 71, (S)-N-(5-methoxy-1H-pyrazol-3-yl)-1-(1-(oxetan-3-yl)ethyl)-1H-pyrazolo[3,4-b]pyrazin-6-amine]
≤ 6.30 | ≥ 8.00 | C[C@H](c1cccc(F)n1)n1ncc2ncc(Nc3cc(OC(F)F)[nH]n3)nc21 (single isomer, unassigned) [Example 156, (S)-N-(5-(difluoromethoxy)-1H-pyrazol-3-yl)-1-(1-(6-fluoropyridin-2-yl)ethyl)-1H-pyrazolo[3,4-b]pyrazin-6-amine or (R)-N-(5-(difluoromethoxy)-1H-pyrazol-3-yl)-1-(1-(6-fluoropyridin-2-yl)ethyl)-1H-pyrazolo[3,4-b]pyrazin-6-amine]
6.30 to 7.00 | ≥ 8.00 | FC(F)Oc1cc(Nc2cnc3cnn(C[C@@H]4CC45CC5)c3n2)n[nH]1 (racemic) [Example 109, (R)-N-(5-(difluoromethoxy)-1H-pyrazol-3-yl)-1-(spiro[2.2]pentan-1-ylmethyl)-1H-pyrazolo[3,4-b]pyrazin-6-amine and (S)-N-(5-(difluoromethoxy)-1H-pyrazol-3-yl)-1-(spiro[2.2]pentan-1-ylmethyl)-1H-pyrazolo[3,4-b]pyrazin-6-amine]
≤ 6.30 | 7.00 to 7.52 | FC(F)Oc1cc(Nc2cnc3cnn([C@H](C4CCOCC4)C4CC4)c3n2)n[nH]1 (single isomer, unassigned) [Example 158, (R)-1-(cyclopropyl(tetrahydro-2H-pyran-4-yl)methyl)-N-(5-(difluoromethoxy)-1H-pyrazol-3-yl)-1H-pyrazolo[3,4-b]pyrazin-6-amine or (S)-1-(cyclopropyl(tetrahydro-2H-pyran-4-yl)methyl)-N-(5-(difluoromethoxy)-1H-pyrazol-3-yl)-1H-pyrazolo[3,4-b]pyrazin-6-amine]
≤ 6.30 | ≥ 8.00 | [2H]C([2H])(c1cccnc1)n1ncc2ncc(Nc3cc(OC(F)F)[nH]n3)nc21 [Example 224, N-(5-(difluoromethoxy)-1H-pyrazol-3-yl)-1-(pyridin-3-ylmethyl-d2)-1H-pyrazolo[3,4-b]pyrazin-6-amine]
6.30 to 7.00 | ≥ 8.00 | COc1cc(Nc2cnc3cnn([C@@H](CF)C4CCOCC4)c3n2)n[nH]1 (single isomer, unassigned) [Example 194, (R)-1-(2-fluoro-1-(tetrahydro-2H-pyran-4-yl)ethyl)-N-(5-methoxy-1H-pyrazol-3-yl)-1H-pyrazolo[3,4-b]pyrazin-6-amine or (S)-1-(2-fluoro-1-(tetrahydro-2H-pyran-4-yl)ethyl)-N-(5-methoxy-1H-pyrazol-3-yl)-1H-pyrazolo[3,4-b]pyrazin-6-amine]
6.30 to 7.00 | ≥ 8.00 | C[C@@H](c1cccnc1F)n1nc(C#N)c2ncc(Nc3cc(OC(F)F)[nH]n3)nc21 [Example 63, (S)-6-((5-(difluoromethoxy)-1H-pyrazol-3-yl)amino)-1-(1-(2-fluoropyridin-3-yl)ethyl)-1H-pyrazolo[3,4-b]pyrazine-3-carbonitrile]
≤ 6.30 | ≥ 8.00 | C[C@@H](O)c1nn([C@@H](C)c2cccnc2)c2nc(Nc3cc(OC(F)F)[nH]n3)cnc12 (single isomer, unassigned) [Example 178, (S)-1-(6-((5-(difluoromethoxy)-1H-pyrazol-3-yl)amino)-1-((S)-1-(pyridin-3-yl)ethyl)-1H-pyrazolo[3,4-b]pyrazin-3-yl)ethan-1-ol or (R)-1-(6-((5-(difluoromethoxy)-1H-pyrazol-3-yl)amino)-1-((S)-1-(pyridin-3-yl)ethyl)-1H-pyrazolo[3,4-b]pyrazin-3-yl)ethan-1-ol]
≤ 6.30 | ≥ 8.00 | C[C@@H](O)c1nn([C@@H](C)c2cccnc2)c2nc(Nc3cc(OC(F)F)[nH]n3)cnc12 (single isomer, unassigned) [Example 177, (R)-1-(6-((5-(difluoromethoxy)-1H-pyrazol-3-yl)amino)-1-((S)-1-(pyridin-3-yl)ethyl)-1H-pyrazolo[3,4-b]pyrazin-3-yl)ethan-1-ol or (S)-1-(6-((5-(difluoromethoxy)-1H-pyrazol-3-yl)amino)-1-((S)-1-(pyridin-3-yl)ethyl)-1H-pyrazolo[3,4-b]pyrazin-3-yl)ethan-1-ol]
